# Results taken from US4395969A (priority 1981, dated 1983).
# Values joined by “and” are separate entries in the source; they are usually repeats but may differ in a detail not shown here. Identical values can stand only once.
# Assays:
# [1] = Half-life / degradation in water (gas chromatograph analysis); assay type: physicochemical; conditions: river water, 15 C
# Text: The presence of bacteria and other microorganisms affect the rate of degradation of the dichloro- and tetrachloro-compounds. Because of this the chemicals break down much faster in river water than in artesian well water or distilled water. For short term bioassays the potencies of the chemicals were not affected by the chemistry of the water.
# [2] = Static bioassay, lethal concentration to cutthroat trout; assay type: in vivo, S. clarki; conditions: cutthroat trout, water
# Procedure: (§1) Bioassays utilized water from an artesian well at Moscow, Idaho and from the headwaters of the Palouse River, also in Idaho. The chemical characteristics of the artesian water were analyzed as follows: Total hardness 67-120 mg/l; total dissolved solids, 160-175 mg/l; and pH 7.1. The chemistry of the Palouse River water was analyzed as follows: total hardness 17 mg/l; methyl orange alkalinity 26 mg/l; total dissolved solids, 32 mg/l and pH, 7.0.
# (§2) Fish were acclimated to test temperatures, usually at 5, 7.5, 10, 15 and 20 degrees Celsius (C), at least 60 hours before exposure to toxicants. For fish and crayfish four water baths regulated the temperature of assay aquaria. Each water bath contained a battery of 20 identical 19-liter clear glass containers or 11.4-liter plastic aquaria lined with disposable polyethylene bags and covered with Plexiglass lids to reduce evaporation. For larger fish and large numbers of fish the bioassays were made in two temperature controlled rooms that contained a series of 700-liter circular fiberglass vats and a series of 76- and 91-liter plastic containers.
# (§3) Standard bioassay techniques were used in sorting fish and conducting the tests. Fish were placed in aerated test aquaria overnight to permit fish to recover from stress due to handling and to deprive them of food. The average load varied but most bioassays were conducted with about 1 g of fish per liter of water.
# (§4) Aliquots of organophosphates were dissolved in ethanol and dispensed to the aquaria to provide concentrations suitable for obtaining the LC0 and LC50 of desirable fish and the LC50 and LC100 of target fish. Control fish were conditioned in the same manner as the test fish, but no chemical was added to the control vessels during the assays. After the addition of a chemical, observations were made mainly at 3, 6, 12, 24, 48, 96, and 192 h. The weight and fork length of fish were obtained when fishes were sacrificed.
# (§5) Delineation bioassays determined primarily the LC50 and LC100 of sucker and stickleback and the LC0 and LC50 of salmonids.
# (§6) The statistical LC1, LC50, and LC99 were interpolated and/or extrapolated using probit graph paper to approximate the LC0, LC50, and LC100 when the latter set of values was not closely determined by single concentrations in a series.
# (§7) The approximate LC50 and LC100 of the target fishes (threespine and brook sticklebacks and bridgelip and white suckers) are tabulated in Table 1. The 96-hour selectivity and safety indices of selected species of salmonids versus the three-spine stickleback are tabulated in Table 3.
# (§8) Threespine stickleback, brook stickleback, bridgelip sucker, white sucker, chinook salmon, coho salmon, sockeye salmon, kokanee, Kamloops trout, cutthroat trout, and brook trout were treated with various concentrations of 2, 2, 2, 1-tetrachloroethyl diethyl phosphate and at various temperatures to determine approximate selectivity and safety indices. The approximate LC50 and LC100 of the target fishes (threespine and brook sticklebacks and bridgelip and white suckers) are tabulated in Table 5. The 96-hour selectivity and safety indices of selected species of salmonids versus the threespine stickleback are tabulated in Table 7.
# cutthroat trout = experiment: as above; assay type: in vivo, S. clarki
# Procedure: as §1, §2, §3, §4, §5, §6, §7, §8
# threespine stickleback [3] = test system: threespine stickleback; parameters: species or system Gasterosteus aculeatus; conditions: in vivo
# [4] = Static bioassay, lethal concentration to Kamloops trout; assay type: in vivo, Kamloops (an adfluvial rainbow trout); conditions: kamloops trout, in vivo
# Procedure: as §1, §2, §3, §4, §5, §6, §7, §8
# Kamloops trout = experiment: as above; assay type: in vivo, Kamloops (an adfluvial rainbow trout)
# Procedure: as §1, §2, §3, §4, §5, §6, §7, §8
# brook stickleback = experiment: Static bioassay, lethal concentration to brook stickleback; assay type: in vivo, Eucalia inconstans; conditions: 15 C
# Procedure: as §1, §2, §3, §4, §5, §6, §7, §8
# [5] = Static bioassay, lethal concentration to brook trout; assay type: in vivo, Salvelinus fontinalis; conditions: brook trout, water, 15 C
# Procedure: as §1, §2, §3, §4, §5, §6, §7, §8
# brook trout = experiment: as above; assay type: in vivo, Salvelinus fontinalis; conditions: 15 C
# Procedure: as §1, §2, §3, §4, §5, §6, §7, §8
# crayfish = experiment: Bioassay, crayfish; assay type: in vivo, Pacifasticus klamathensis; conditions: 10 C
# Procedure: Cursory bioassays were made with small numbers of other fishes and a crayfish (Pacifasticus klamathensis) to check on the universal selectivity of the toxicants. The fishes included Arctic grayling (Thymallus arcticus), longnose sucker (C. catastomus), largescale sucker, (C. macrocheilus), and spotted sucker (Minytrema melanops).
# A series of bioassays tested crayfish (9 to 10 crayfish per aquarium) at concentrations of 1, 3, and 10 mg/l of 2, 2-dichlorovinyl diethyl phosphate. […] A second series of bioassays tested crayfish (10 crayfish per aquarium) at 10 concentrations of 2, 2, 2, 1-tetrachloroethyl diethyl phosphate (range, 0 to 1400 μg/l).
# coho salmon = experiment: Long-term static bioassay, coho salmon; conditions: 64 days, 10 C, individually
# threespine stickleback [6] = experiment: Long-term static bioassay, threespine stickleback; conditions: 32 days, 10 C, individually
# in vivo = conditions: chinook salmon
# Salmonella, five strains = experiment: Salmonella standard plate test for mutagens/carcinogens; conditions: 0.5, 5, 50, 500, and 5000 mg/l
# [7] = 10 C, individually, read-out: LC50
# [8] = with 2 Cl 1:300, 10 C, read-out: LC50 in combination, 4 Cl component
# [9] = with 4 Cl 300:1, 10 C, read-out: LC50 in combination, 2 Cl component
smiles,measurement,setting,value
"CCOP(=O)(OCC)OC(Cl)C(Cl)(Cl)Cl (stereo not shown) [2,2,2,1-tetrachloroethyl diethyl phosphate]",half-life,[1],~11 days
same,LC50 at 96 h,[2]; 10 C,0.019 µg/mL
same,LC50 at 192 h,[2]; 10 C,0.017 µg/mL
same,LC50 at 48 h,[2]; 15 C,0.022 µg/mL
same,LC50 at 96 h,[2]; 15 C,0.018 µg/mL
same,LC50 at 192 h,[2]; 15 C,0.018 µg/mL
same,LC0,"cutthroat trout; 10 C, 96 h",14 µg/L
same,LC0,"cutthroat trout; 10 C, 192 h",14 µg/L
same,LC0,"cutthroat trout; 15 C, 48 h",14 µg/L
same,LC0,"cutthroat trout; 15 C, 96 h",14 µg/L
same,LC0,"cutthroat trout; 15 C, 192 h",14 µg/L
same,"LC50 in combination, 4 Cl component",threespine stickleback [3],0.001 µg/mL and 0.00067 µg/mL
same,concentration achieving 100% mortality,threespine stickleback [3],7 mg/L
same,LC50 at 96 h,"[4]; 5 C, read-out: LC50",> 0.03 µg/mL
same,LC50 at 192 h,"[4]; 5 C, read-out: LC50",0.018 µg/mL
same,LC50 at 96 h,[4]; [7],0.024 µg/mL
same,LC50 at 192 h,[4]; [7],0.02 µg/mL
same,LC50 at 96 h,"[4]; 15 C, read-out: LC50",> 0.024 µg/mL
same,LC50 at 192 h,"[4]; 15 C, read-out: LC50",> 0.024 µg/mL
same,LC50 at 96 h,[4]; [8],0.008 µg/mL
same,LC50 at 192 h,[4]; [8],0.005 µg/mL
same,LC0,"Kamloops trout; 5 C, 96 h",0.024 mg/L
same,LC0,"Kamloops trout; 5 C, 192 h",0.012 mg/L
same,LC0,"Kamloops trout; 10 C, 96 h, individually, listed as 2, 2, 2, 1-tetrachloroethyl diethyl phosphate",0.018 mg/L and 0.014 mg/L
same,LC0,"Kamloops trout; 10 C, 96 h, individually, listed as 4 Cl",0.014 mg/L
same,LC0,"Kamloops trout; 10 C, 192 h",0.01 mg/L
same,LC0,"Kamloops trout; 15 C, 96 h",0.024 mg/L
same,LC0,"Kamloops trout; 15 C, 192 h",0.014 mg/L
same,LC50,brook stickleback; 24 h,0.006 µg/mL
same,LC100,brook stickleback; 24 h,0.01 mg/L
same,LC100,brook stickleback; 48 h,0.008 mg/L
same,LC100,brook stickleback; 96 h,0.006 mg/L
same,LC50 at 48 h,[5],0.022 µg/mL
same,LC50 at 96 h,[5],0.02 µg/mL
same,LC50 at 192 h,[5],0.02 µg/mL
same,LC0,brook trout; 48 h,10 µg/L
same,LC0,brook trout; 96 h,10 µg/L
same,LC0,brook trout; 192 h,10 µg/L
same,concentration at which no crayfish died,crayfish; 96 h,≤ 200 ng/mL
same,mortality,coho salmon; 6 μg/l (or less),Essentially no mortality
same,mortality,"coho salmon; 6 μg/l (or less), listed as 2, 2, 2, 1-tetrachloroethyl diethyl phosphate",no significant mortality
same,mortality,threespine stickleback [6]; 4 μg/l,100%
same,LC50 at 48 h,in vivo,0.035 µg/mL
same,LC50 at 96 h,in vivo,0.025 µg/mL
same,LC50 at 192 h,in vivo,0.025 µg/mL
same,mutagenic activity,"Salmonella, five strains",no mutagenic activity
"CCOP(=O)(OC=C(Cl)Cl)OCC [2,2-dichlorovinyl diethyl phosphate]",half-life,[1],< 20 days
same,LC50 at 192 h,[2]; 10 C,4.8 µg/mL
same,LC50 at 48 h,[2]; 15 C,5.3 µg/mL
same,LC50 at 96 h,[2]; 15 C,2.5 µg/mL
same,LC50 at 192 h,[2]; 15 C,1.8 µg/mL
same,LC0,"cutthroat trout; 10 C, 96 h",4000 µg/L
same,LC0,"cutthroat trout; 15 C, 48 h",4000 µg/L
same,LC0,"cutthroat trout; 15 C, 96 h",2000 µg/L
same,LC0,"cutthroat trout; 15 C, 192 h",1000 µg/L
same,"LC50 in combination, 2 Cl component",threespine stickleback [3],0.3 µg/mL and 0.2 µg/mL
same,LC50 at 192 h,"[4]; 5 C, read-out: LC50",5.1 µg/mL
same,LC50 at 96 h,[4]; [7],5 µg/mL
same,LC50 at 96 h,"[4]; 10 C, read-out: LC50",5.4 µg/mL
same,LC50 at 192 h,[4]; [7],2 µg/mL
same,LC50 at 192 h,"[4]; 10 C, read-out: LC50",2 µg/mL
same,LC50 at 96 h,"[4]; 15 C, read-out: LC50",3.5 µg/mL
same,LC50 at 192 h,"[4]; 15 C, read-out: LC50",3 µg/mL
same,LC50 at 96 h,[4]; [9],2.4 µg/mL
same,LC50 at 192 h,[4]; [9],1.5 µg/mL
same,LC0,"Kamloops trout; 5 C, 48 h",> 4.0 mg/L
same,LC0,"Kamloops trout; 5 C, 96 h",2.0 mg/L
same,LC0,"Kamloops trout; 5 C, 192 h",1.4 mg/L
same,LC0,"Kamloops trout; 10 C, 48 h",> 4.0 mg/L
same,LC0,"Kamloops trout; 10 C, 96 h",2.0 mg/L
same,LC0,"Kamloops trout; 10 C, 96 h, individually",2 mg/L
same,LC0,"Kamloops trout; 10 C, 192 h",1.0 mg/L
same,LC0,"Kamloops trout; 15 C, 48 h",3.0 mg/L
same,LC0,"Kamloops trout; 15 C, 96 h",1.0 mg/L
same,LC0,"Kamloops trout; 15 C, 192 h",1.0 mg/L
same,LC50,brook stickleback; 24 h,0.8 µg/mL
same,LC100,brook stickleback; 24 h,1.0 mg/L
same,LC50,brook stickleback; 48 h,0.4 µg/mL
same,LC100,brook stickleback; 48 h,0.6 mg/L
same,LC50,brook stickleback; 96 h,0.4 µg/mL
same,LC100,brook stickleback; 96 h,0.6 mg/L
same,LC50,brook stickleback; 192 h,0.3 µg/mL
same,LC100,brook stickleback; 192 h,0.6 mg/L
same,LC50 at 48 h,[5],5 µg/mL
same,LC50 at 96 h,[5],3.3 µg/mL
same,LC50 at 192 h,[5],3.2 µg/mL
same,LC0,brook trout; 48 h,4000 µg/L
same,LC0,brook trout; 96 h,2000 µg/L
same,LC0,brook trout; 192 h,800 µg/L
same,crayfish mortality,"crayfish; 1 mg/l, 96 h",No crayfish died
same,crayfish mortality,"crayfish; 3 mg/l, 96 h",1 out of 9 crayfish died
same,crayfish mortality,"crayfish; 10 mg/l, 24 h",No crayfish died
same,mortality,coho salmon; 300 μg/l,essentially no mortality
same,mortality,"coho salmon; 300 μg/l, listed as 2, 2-dichlorovinyl diethyl phosphate",no significant mortality
same,mortality,threespine stickleback [6]; 600 μg/l,65%
same,LC50 at 192 h,in vivo,5 µg/mL
same,mutagenic activity,"Salmonella, five strains",no mutagenic activity
